In assay [1] the target is T1, Cbl-b (Homo sapiens, UniProt Q13191).
T1 construct: Cbl-b-HiBit KI Jurkat Cells were purchased from Promega; host or cells: Cbl-b-HiBiT knock-in Jurkat cells
Put plainly: Cbl-b Degradation Method A (FACS, anti-Cbl-b antibody staining). The format is cell-based. To be noted: Cbl-b-HiBit KI Jurkat Cells, incubated at least 20 hours; for DC50: half maximal degradation, read-out: Cbl-b Degredation Method A IC50; for Dmax: Jurkat, maximum degradation observed, read-out: Cbl-b Degredation Method A Dmax (%). As to the method: Cbl-b Degradation Method A
Cbl-b-HiBit KI Jurkat Cells were purchased from Promega, and cell media consisted of RPMI 1640 with 10% FBS and 1% pen/strep. The cells were counted, measured for viability, and 100 μL of the cell solution was into 96 well flat bottom plates at a ratio of 290,000 cells per 100 μL. Compounds were dissolved in DMSO to make a 10 mM stock solution, which was diluted with cell media. 100 μL of the diluted compound mixture was added to the wells. The plate was incubated for at least 20 hours at 37° C. and 5% CO2. After incubation, the plate was shaken at 700-750 RMP for 15-30 minutes to ensure cells were removed from the wells. The wells were transferred to a 96-well v-bottom plate and spun for 2200 RPM for 3 minutes. The supernatant was removed, cells re-suspended in 100 μL of the fixative, and subsequently incubated at room temperature for 15 minutes. Afterwards, 150 μL of DPBS was added to each well, and the cells were centrifuged at 2500 RPM for 3 minutes. The supernatant was removed and the plate was chilled on ice for 2-3 minutes. While still on the ice, 100 μL of Perm III was added to each well, the wells mixed, and subsequently left on the ice for another 15 minutes. Afterwards, the plate was removed from the ice, 150 μL of DBPS was added to each well, and the cells centrifuged at 2700 RPM for 3 minutes. The supernatant was removed, and an additional 200 μL of was DPBS was added to each well, followed by centrifuging at 2700 RPM for 3 minutes, after which the supernatant was removed. The anti-Cbl-b antibody was diluted 1:200 in 1× Perm Wash buffer and 50 μL of the antibody mixture was added to each well and mixed. After addition, the plate was incubated for 35-45 minutes at room temperature. After incubation, 200 μL of DPBS was added to each wells, and the plate centrifuged at 2700 RPM for 3 minutes, followed by the removal of the supernatant. The washing step was repeated by adding 200 μL of DPBS to each wells followed by centrifuge at 2700 RPM for 3 minutes and removal of the supernatant. The a-Rabbit-AF488 antibody was diluted 1:1000 in Perm Wash buffer, 50 μL of the dilution added to each well, and mixed. After mixing, the plate was incubated for 30 minutes at room temperature in the dark. Subsequently, the supernatant was removed, and 200 μL of DBPS added to the cells, which were then centrifuged at 2900 RPM for 4 minutes. The supernatant was removed, and an additional 95 μL of DBPS was added to the wells and mixed. The cells were then transferred to a round bottom polypropylene plate and analyzed using FACS with the parameters below:
The concentration of an exemplary compound that leads to half maximal degradation (DC50) as well as the maximum degradation observed (Dmax, conventionally expressed as a percentage of control) is shown below in Table 2.
Background: HiBiT is a short tag that completes a luciferase, so light tracks the accessible tagged protein.

Assay [2] deals with T1, Cbl-b. Description: Cbl-b Degradation Method B (Nano-Glo HiBiT lytic detection). To be noted: Cbl-b-HiBit KI Jurkat Cells, incubated at least 6-24 hours; for DC50: half maximal degradation, read-out: Cbl-b Degredation Method B IC50; for Cbl-b Degredation Method B Dmax (%) / Dmax: maximum degradation observed; for Dmax: read-out: Cbl-b Degredation Method B Dmax (%). In kind it is cell-based. In a few lines: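 An 11-point, 3-fold compound dilution was applied for 6-24 hours to Jurkat cells carrying HiBiT-tagged endogenous Cbl-b. Lytic HiBiT luminescence quantified residual protein. Outputs are DC50 and Dmax relative to DMSO control.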

T1 sequence (Q13191 whole entry): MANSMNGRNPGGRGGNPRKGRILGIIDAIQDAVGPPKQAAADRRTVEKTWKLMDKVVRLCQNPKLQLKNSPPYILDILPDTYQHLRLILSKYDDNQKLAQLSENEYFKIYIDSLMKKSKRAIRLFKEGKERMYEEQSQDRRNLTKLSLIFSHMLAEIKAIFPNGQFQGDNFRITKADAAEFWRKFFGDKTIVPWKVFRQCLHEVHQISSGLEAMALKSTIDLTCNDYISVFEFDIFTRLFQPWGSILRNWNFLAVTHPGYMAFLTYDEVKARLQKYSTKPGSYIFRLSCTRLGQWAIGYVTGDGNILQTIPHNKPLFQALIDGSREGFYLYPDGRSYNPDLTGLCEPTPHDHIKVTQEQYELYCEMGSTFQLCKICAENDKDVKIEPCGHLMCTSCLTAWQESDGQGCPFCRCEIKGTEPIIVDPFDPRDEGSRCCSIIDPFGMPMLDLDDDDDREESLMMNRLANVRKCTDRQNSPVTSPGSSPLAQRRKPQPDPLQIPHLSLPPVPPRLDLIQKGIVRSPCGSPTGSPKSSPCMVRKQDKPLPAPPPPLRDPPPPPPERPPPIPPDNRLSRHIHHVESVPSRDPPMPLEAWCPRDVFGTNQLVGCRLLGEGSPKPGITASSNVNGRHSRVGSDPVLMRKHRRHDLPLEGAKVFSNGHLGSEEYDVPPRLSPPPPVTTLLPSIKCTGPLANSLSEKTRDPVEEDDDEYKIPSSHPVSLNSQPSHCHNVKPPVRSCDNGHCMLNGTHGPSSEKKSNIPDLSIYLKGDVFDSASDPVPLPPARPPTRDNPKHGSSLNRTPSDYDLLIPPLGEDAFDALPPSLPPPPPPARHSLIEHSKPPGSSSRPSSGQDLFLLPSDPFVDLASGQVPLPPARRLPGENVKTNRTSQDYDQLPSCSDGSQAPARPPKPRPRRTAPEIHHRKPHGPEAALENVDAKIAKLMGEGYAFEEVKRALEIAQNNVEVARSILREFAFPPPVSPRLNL

For `CC(C)n1c(=O)n(C2CCC(=O)NC2=O)c2cccc(N3CCC(CN4CCC5(CC4)CN(Cc4ccc(-c6cc7c(c(C(F)(F)F)c6)CN(c6cccc(C8(Cc9nncn9C)CC(C#N)C8)c6)C7=O)cc4)C5)CC3)c21` (stereo not shown) [Example 283, 3-[3-[6-[4-[[7-[[1-[1-(2,6-dioxo-3-piperidyl)-3-isopropyl-2-oxo-benzimidazol-4-yl]-4-piperidyl]methyl]-2,7-diazaspiro[3.5]nonan-2-yl]methyl]phenyl]-1-oxo-4-(trifluoromethyl)isoindolin-2-yl]phenyl]-3-[(4-methyl-1,2,4-triazol-3-yl)methyl]cyclobutanecarbonitrile], on Cbl-b [1], the DC50 lay within 0.05 to 0.5 µM and the Dmax (commonly the greatest extent of degradation seen) fell in the range of 35 to 70%. Further, at Cbl-b [2], the DC50 lay within 0.005 to 0.05 µM and the “Cbl-b Degredation Method B Dmax (%)” value is listed as “C (C ≤ 35)”.

In the case of `Cn1cnnc1CC1(c2cccc(N3Cc4c(cc(N5CC6(CCN(CC7CCN(c8ccc9c(c8)CN(C8CCC(=O)NC8=O)C9=O)CC7)CC6)C5)cc4C(F)(F)F)C3=O)c2)COC1` (stereo not shown) [Example 117, 3-{5-[4-({2-[2-(3-{3-[(4-methyl-4H-1,2,4-triazol-3-yl)methyl]oxetan-3-yl}phenyl)-3-oxo-7-(trifluoromethyl)-2,3-dihydro-1H-isoindol-5-yl]-2,7-diazaspiro[3.5]nonan-7-yl}methyl)piperidin-1-yl]-1-oxo-2,3-dihydro-1H-isoindol-2-yl}piperidine-2,6-dione], on Cbl-b [1], the DC50 was less than 0.005 µM and the Dmax fell in the range of 35 to 70%. On Cbl-b [2], the DC50 is less than 0.005 µM and the maximal degradation (Dmax) is 35 to 70%.

Turning to `CC1c2nc(N3CCC(O[C@H]4CC[C@H](CN5CCN(Cc6cc7c(c(C(F)(F)F)c6)CN(c6cccc(C8(Cc9nncn9C)CCC8)c6)C7=O)CC5)CC4)CC3)ccc2C(=O)N1C1CCC(=O)NC1=O` (mixture of isomers) [Example 232, rac-3-[7-methyl-5-oxo-2-(4-{[(1r,4r)-4-[(4-{[2-(3-{1-[(4-methyl-4H-1,2,4-triazol-3-yl)methyl]cyclobutyl}phenyl)-3-oxo-7-(trifluoromethyl)-2,3-dihydro-1H-isoindol-5-yl]methyl}piperazin-1-yl)methyl]cyclohexyl]oxy}piperidin-1-yl)-5H,6H,7H-pyrrolo[3,4-b]pyridin-6-yl]piperidine-2,6-dione], the results for the DC50 at Cbl-b [1] and at Cbl-b [2] were 0.005 to 0.05 µM and less than 0.005 µM, respectively. Besides, the Dmax on Cbl-b [1] was more than 70%; at Cbl-b [2], 35 to 70%.

On to `Cn1cnnc1C[C@]1(c2cccc(N3Cc4c(cc(N5CC6(CCN(CC7CCN(c8ccc9c(c8)C(=O)N(C8CCC(=O)NC8=O)C9=O)CC7)CC6)C5)cc4C(F)(F)F)C3=O)c2)C[C@@H](C#N)C1` (stereo partly shown) [Example 137, (1s,3s)-3-(3-{6-[7-({1-[2-(2,6-dioxopiperidin-3-yl)-1,3-dioxo-2,3-dihydro-1H-isoindol-5-yl]piperidin-4-yl}methyl)-2,7-diazaspiro[3.5]nonan-2-yl]-1-oxo-4-(trifluoromethyl)-2,3-dihydro-1H-isoindol-2-yl}phenyl)-3-[(4-methyl-4H-1,2,4-triazol-3-yl)methyl]cyclobutane-1-carbonitrile], for which, at Cbl-b [1], the DC50 lay within 0.005 to 0.05 µM and the Dmax was 35 to 70%. Also, on Cbl-b [2], the DC50 is 0.005 to 0.05 µM and the Dmax lay within 35 to 70%.

On to `COc1c(N2CCC(O[C@H]3CC[C@H](CN4CCC5(CC4)CN(c4cc6c(c(C(F)(F)F)c4)CN(c4cccc([C@]7(Cc8nncn8C)C[C@@H](C#N)C7)c4)C6=O)C5)CC3)CC2)ccc2c1CN(C1CCC(=O)NC1=O)C2=O` (stereo partly shown) [Example 186, (1r,3r)-3-[(4-methyl-4H-1,2,4-triazol-3-yl)methyl]-3-{3-[1-oxo-6-(7-{[(1r,4r)-4-({1-[2-(2,6-dioxopiperidin-3-yl)-4-methoxy-1-oxo-2,3-dihydro-1H-isoindol-5-yl]piperidin-4-yl}oxy)cyclohexyl]methyl}-2,7-diazaspiro[3.5]nonan-2-yl)-4-(trifluoromethyl)-2,3-dihydro-1H-isoindol-2-yl]phenyl}cyclobutane-1-carbonitrile], for which, on Cbl-b [1], the DC50 fell in the range of 0.005 to 0.05 µM and the Dmax was in the range of 35 to 70%. Moreover, at Cbl-b [2], the DC50 is less than 0.005 µM and the Dmax fell in the range of 35 to 70%.

Take `Cn1cnnc1C1(c2cccc(N3Cc4c(cc(CN5CCC[C@H](CN6CCN(C[C@H]7CC[C@@H](OC8CCN(c9ccc%10c(c9F)CN(C9CCC(=O)NC9=O)C%10=O)CC8)CC7)CC6)C5)cc4C(F)(F)F)C3=O)c2)COC1` (stereo partly drawn) [Example 161, 3-[4-fluoro-1-oxo-5-(4-{[(1r,4r)-4-[(4-{[(3S)-1-[(2-{3-[3-(4-methyl-4H-1,2,4-triazol-3-yl)oxetan-3-yl]phenyl}-3-oxo-7-(trifluoromethyl)-2,3-dihydro-1H-isoindol-5-yl)methyl]piperidin-3-yl]methyl}piperazin-1-yl)methyl]cyclohexyl]oxy}piperidin-1-yl)-2,3-dihydro-1H-isoindol-2-yl]piperidine-2,6-dione]: at Cbl-b [1], the DC50 was in the range of 0.005 to 0.05 µM and the greatest degradation seen (Dmax) was less than 35%. For the same molecule, the DC50 at Cbl-b [2] was more than 0.5 µM.

As to `C[C@@H]1c2nc(N3CCC(O[C@H]4CC[C@H](CN5CCN(Cc6cc7c(c(C(F)(F)F)c6)CN(c6cccc(C8(Cc9nncn9C)CC(C#N)C8)c6)C7=O)C6(CC6)C5)CC4)CC3)ccc2C(=O)N1C1CCC(=O)NC1=O` (single isomer, unassigned) [Example 304, (1r***,3r***)-3-[(4-methyl-4H-1,2,4-triazol-3-yl)methyl]-3-(3-{1-oxo-6-[(7-{[(1r**,4r**)-4-({1-[(7R*)-6-(2,6-dioxopiperidin-3-yl)-7-methyl-5-oxo-5H,6H,7H-pyrrolo[3,4-b]pyridin-2-yl]piperidin-4-yl}oxy)cyclohexyl]methyl}-4,7-diazaspiro[2.5]octan-4-yl)methyl]-4-(trifluoromethyl)-2,3-dihydro-1H-isoindol-2-yl}phenyl)cyclobutane-1-carbonitrile], at Cbl-b [1], the DC50 fell in the range of 0.05 to 0.5 µM and the maximal degradation (Dmax) is 35 to 70%. Also, on Cbl-b [2], the DC50 is less than 0.005 µM and the “Cbl-b Degredation Method B Dmax (%)” value is “C (C ≤ 35)”.

With `Cc1cc(N2CCC(O[C@H]3CC[C@H](CN4CCN(Cc5cc6c(c(C(F)(F)F)c5)CN(c5cccc(C7(Cc8nncn8C)CCC7)c5)C6=O)C(C)(C)C4)CC3)CC2)c(F)c2c1C(=O)N(C1CCC(=O)NC1=O)C2` (stereo partly shown) [Example 224, 3-[4-fluoro-7-methyl-1-oxo-5-(4-{[(1r,4r)-4-[(3,3-dimethyl-4-{[2-(3-{1-[(4-methyl-4H-1,2,4-triazol-3-yl)methyl]cyclobutyl}phenyl)-3-oxo-7-(trifluoromethyl)-2,3-dihydro-1H-isoindol-5-yl]methyl}piperazin-1-yl)methyl]cyclohexyl]oxy}piperidin-1-yl)-2,3-dihydro-1H-isoindol-2-yl]piperidine-2,6-dione], at Cbl-b [1], the DC50 is 0.005 to 0.05 µM and the Dmax was more than 70%.

As for `Cc1cc(N2CCC(CN3CC4(C3)CN(C3=CC5C(=O)N(c6cccc([C@]7(Cc8nncn8C)C[C@@H](C#N)C7)c6)CC5C(C(F)(F)F)=C3)C4)CC2)c(F)c2c1C(=O)N(C1CCC(=O)NC1=O)C2` (stereo partly shown) [Example 189, (1r,3r)-3-(3-{6-[6-({1-[2-(2,6-dioxopiperidin-3-yl)-4-fluoro-7-methyl-1-oxo-2,3-dihydro-1H-isoindol-5-yl]piperidin-4-yl}methyl)-2,6-diazaspiro[3.3]heptan-2-yl]-1-oxo-4-(trifluoromethyl)-2,3,3a,7a-tetrahydro-1H-isoindol-2-yl}phenyl)-3-[(4-methyl-4H-1,2,4-triazol-3-yl)methyl]cyclobutane-1-carbonitrile], on Cbl-b [1], the DC50 is 0.005 to 0.05 µM and the greatest degradation seen (Dmax) lay in the range of 35 to 70%.

The values are drawn from patent US20260184710A1, “CASITAS B-LINEAGE LYMPHOMA PROTOONCOGENE B (CBL-B) DEGRADING COMPOUNDS AND ASSOCIATED METHODS OF USE” (Arvinas Operations, Inc., priority 2022, published 2026).
